Laboratory results: patent US8563546B2, “Heterocyclic nitrogenous or oxygenous compounds with insecticidal activity formed from dialdehydes and their preparation and uses thereof” (East China University of Science and Technology, priority 2008, dated 2013)
Like-named read-outs stand apart in the source and are kept apart here.

Legend:
Format in all cases: in vivo
[1] = system: Nilaparvata lugens; test: Activity test for planthopper, spraying; conditions: for mortality at 500 ppm: Nilaparvata lugens, read-out: Planthopper Mortality (100%) 500 ppm
Description: (2) Activity Test for Planthopper (Nilaparvata lugens)
Planthopper, which belongs to Homoptera and has a piercing-sucking mouthpart, is a common insect for agricultural plant. Nilaparvata lugens was tested by the way of spraying.
Test method: the test compound was exactly formulated into a solution of acetone to final concentration of 500, 250, 100, 50, 25, 12.5, 6.25, 3.13, 1.57 and 0.79 ppm. The acetone aqueous solution was used as control. Each process was repeated for 3 tumblers (3 times). 2 mL of solution was sprayed uniformly to each cup by a mini manual sprayer. 10 Nilaparvata lugens were introduced to every sink 6 hours before spraying. Three series of experiments were conducted. The number of killed Nilaparvata lugens was counted after 24 hours to calculate the mortality using above mentioned formula.

[2] = system: Plutella Xylostella; test: Activity test for diamondback moth, feeding immersed cabbage leaves; conditions: for mortality at 500 ppm: Plutella xylostella, read-out: Diamondback moth Mortality (100%) 500 ppm
Description: (4) Activity Test for Diamondback Moth (Plutella Xylostella)
Diamondback moth was tested by the way of feeding immersed leaves. Fresh cabbage leaves were immersed in above mentioned solution for 3 seconds and dried at room temperature and used to feed to the tested insects. Each process was repeated for 3 tumblers (3 times) while 10 Diamondback moths were tested in each experiment, while water was used as control. The number of killed Diamondback moth was counted after 24 hours to calculate the mortality using above mentioned formula.

[3] = system: Aphis craccivoral; test: Activity test for cowpea aphids, immersing; conditions: for mortality at 500 ppm: Aphis, read-out: Cowpea Aphids Mortality (100%) 500 ppm
Description: (1) Activity Test for Cowpea Aphids (Aphis Craccivoral)
Aphis, which belongs to Homoptera and has a piercing-sucking mouthpart, is a common insect for agricultural plant. Aphis craccivoral was tested by the way of immersing.
Test method: exactly weighed various samples were independently added to N,N-dimethylformamide to form a 10 g/L stock solution. The mixture was diluted with 0.2 mL/L aqueous Triton X-100 solution to a concentration of 500 ppm After stably sucking on bean sprout, the adult aphis without wings together with bean sprout was dipped into 500 ppm dilution, taken out after 5 seconds, and the excess dilution was sucked out with bibulous paper and the adult aphis without wings was incubated in clean vessel at a constant temperature of 23° C. Each concentration was repeated for 3 times and the control group contained 0.2 mL/L aqueous Triton X-100 solution. The number of killed aphis was counted after 24 hours to calculate the mortality by the following formula: mortality(%)=(control alive aphis−treated alive aphis)/control alive aphis×100%.

[4] = system: Pseudaletia Separate Walker; test: Activity test for armyworm, feeding immersed maize leaves; conditions: for mortality at 500 ppm: read-out: Armyworm Mortality (100%) 500 ppm
Description: (3) Activity Test for Armyworm (Pseudaletia Separate Walker)
Armyworm was tested by the way of feeding immersed leaves. The test compound was exactly formulated into a solution of acetone to concentration 500, 250, 100, 50, 25, 12.5, 6.25, 3.13 and 1.57 ppm. The acetone aqueous solution was used as control. Fresh maize leaves were immersed in the solution for 3 seconds and dried at room temperature and used to feed the tested insects. Each process was repeated for 3 times while 10 Armyworms were tested in each experiment. The number of killed Armyworms was counted after 24 hours to calculate the mortality using above mentioned formula.

[5] = 500 ppm, spraying, counted after 24 hours
[6] = 500 ppm, immersed cabbage leaves, counted after 24 hours
[7] = 500 ppm, dipped 5 seconds, counted after 24 hours, 23° C.
[8] = 500 ppm, immersed maize leaves, counted after 24 hours

| Compound | mortality at 500 ppm [1, 5] [%] | mortality at 500 ppm [2, 6] [%] | mortality at 500 ppm [3, 7] [%] | mortality at 500 ppm [4, 8] [%] | mortality at 500 ppm ([1]; 24 h) [%] | mortality at 500 ppm ([2]; 24 h) [%] | mortality at 500 ppm ([3]; 24 h) [%] | mortality at 500 ppm ([4]; 24 h) [%] | other results |
| --- | --- | --- | --- | --- | --- | --- | --- | --- | --- |
| O=[N+]([O-])C1=C2N(Cc3ccc(Cl)nc3)CCN2C2CCC1O2 (stereo not shown) [Compound 52, 1-((6-chloropyridin-3-yl)methyl)-9-nitro-2,3,5,6,7,8-hexahydro-1H-5,8-epoxyimidazo[1,2-a]azepine] | 100 | 100 | 100 | 100 |  |  |  |  |  |
| O=[N+]([O-])/C(=C/C/C=C(\C1=NCCN1Cc1ccc(Cl)nc1)[N+](=O)[O-])C1=NCCN1Cc1ccc(Cl)nc1 [Compound 39] |  |  |  |  | 100 | 100 | 100 | 100 |  |
| O=[N+]([O-])C1=C2N(Cc3cnc(Cl)s3)CCN2C2CCC1O2 (stereo not shown) [Compound 53, 1-((2-chlorothiazol-5-yl)methyl)-9-nitro-2,3,5,6,7,8-hexahydro-1H-5,8-epoxyimidazo[1,2-a]azepine] | 100 | 100 | 100 | 100 |  |  |  |  |  |
| O=[N+]([O-])/C(=C/C/C=C(\C1=NCCN1Cc1cnc(Cl)s1)[N+](=O)[O-])C1=NCCN1Cc1cnc(Cl)s1 [Compound 41] |  |  |  |  | 100 | 100 | 100 | 100 |  |
| 1-((6-chloropyridin-3-yl)methyl)-5-(1-((6-chloropyridin-3-yl) methyl)-1,4,5,6-tetrahydropyrimidin-2-yl)-1,5-dinitropenta-1,4-dienyl)-1,4,5,6-tetrahydropyrimidine [Compound 43] |  |  |  |  |  |  |  |  | Planthopper Mortality (100%) 500 ppm [1, 5]: 87%; Diamondback moth Mortality (100%) 500 ppm [2, 6]: 96%; Cowpea Aphids Mortality (100%) 500 ppm [3, 7]: 78%; Armyworm Mortality (100%) 500 ppm [4, 8]: 100% |
| CCN(Cc1ccc(Cl)nc1)C(=N\C)/C(=C\C/C=C(\C(=N\C)N(CC)Cc1ccc(Cl)nc1)[N+](=O)[O-])[N+](=O)[O-] [Compound 37, N^1,N^7-bis((6-chloropyridin-3-yl)methyl)-N^1,N^7-diethyl-N^1′, N^7′-dimethyl-2,6-dinitrohepta-2,5-dienediamidine] |  |  |  |  | 100 | 100 | 100 | 100 |  |
| N#CC1=C2N(Cc3ccc(Cl)nc3)CCN2C2CCC1O2 (stereo not shown) [Compound 64, 1-((6-chloropyridin-3-yl)methyl)-2,3,5,6,7,8-hexahydro-1H-5,8-epoxyimidazo[1,2-a]azepine-9-carbonitrile] | 56 | 100 | 96 | 100 |  |  |  |  |  |
| O=[N+]([O-])C1=C2N(CC3CCOC3)CCN2C2CCCC1O2 (stereo not shown) [Compound 80, 10-nitro-1-((tetrahydrofuran-3-yl)methyl)-1,2,3,5,6,7,8,9-octahydro-5,9-epoxyimidazo[1,2-a]azocine] |  | 100 |  |  | 100 |  | 100 | 100 |  |
| O=[N+]([O-])C1=C2N(Cc3ccc(Cl)nc3)CCCN2C2CCC1O2 (stereo not shown) [Compound 61, 1-((6-chloropyridin-3-yl)methyl)-10-nitro-1,2,3,4,6,7,8,9-octahydro-6,9-epoxypyrimido[1,2-a]azepine] | 75 | 35 | 65 | 76 |  |  |  |  |  |
| O=[N+]([O-])C1=C2N(Cc3ccc(Cl)nc3)CCN2C2CCCC1O2 (stereo not shown) [Compound 77, 1-((6-chloropyridin-3-yl)methyl)-10-nitro-1,2,3,5,6,7,8,9-octahydro-5,9-epoxyimidazo[1,2-a]azocine] | 100 | 100 | 100 | 100 |  |  |  |  |  |
| COC(/C=C(\C1=NCCN1Cc1ccc(Cl)nc1)[N+](=O)[O-])/C(=C1\NCCN1Cc1ccc(Cl)nc1)[N+](=O)[O-] (stereo not shown) [Compound 14] |  |  |  |  | 100 | 100 | 100 | 100 |  |
| CCN(Cc1ccc(Cl)nc1)C1=C([N+](=O)[O-])C2CCC(O2)N1C (stereo not shown) [Compound 46, N-((6-chloropyridin-3-yl)methyl)-N-ethyl-2-methyl-4-nitro-8-oxa-2-aza-bicyclo[3.2.1]oct-3-en-3-amine] | 100 | 100 | 100 | 100 |  |  |  |  |  |
| O=[N+]([O-])/C(=C1/NCCN1Cc1ccc(Cl)nc1)C(O)/C=C(\C1=NCCN1Cc1ccc(Cl)nc1)[N+](=O)[O-] (stereo not shown) [Compound 13, 4-(1-((6-chloropyridin-3-yl)methyl)-4,5-dihydro-1H-imidazol-2-yl)-1-(1-((6-chloropyridin-3-yl)methyl)imidazolidin-2-ylidene)-1,4-dinitrobut-3-en-2-ol] |  |  |  |  | 85 | 100 | 78 | 100 |  |
